# PubChem BioAssay AID2060513 (Molecular Pharmacology Branch, DTP, NCI, 2025)
# pIC50: −log10 of the molar value.
# Test system: 299254-011-R-J1-PDC complex spheroids viability
# Experiment: Anticancer human tumor 299254-011-R-J1-PDC patient-derived melanoma cell line growth inhibition [GQUAD]
# Conditions: for pIC50: curve of first compound; for viability, T/C: stronger effect = lower value
# Summary of the method: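 Tumor cells were grown as complex spheroids with HUVEC endothelial cells and mesenchymal stem cells as stroma. G-quadruplex stabilizers were combined with targeted agents over half-log dilutions from near the clinical Cmax, or from 10 microM.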
# [1] = second compound 0.0316 µM, first compound 0.0316 µM
# [2] = second compound 0.0316 µM, first compound 0.1 µM
# [3] = second compound 0.0316 µM, first compound 0.316 µM
# [4] = second compound 0.0316 µM, first compound 1 µM
# [5] = second compound 0.0316 µM, first compound 3.16 µM
# [6] = second compound 0.0316 µM, first compound 10 µM
# [7] = second compound 0.1 µM, first compound 0.0316 µM
# [8] = second compound 0.1 µM, first compound 0.1 µM
# [9] = second compound 0.1 µM, first compound 0.316 µM
# [10] = second compound 0.1 µM, first compound 1 µM
# [11] = second compound 0.1 µM, first compound 3.16 µM
# [12] = second compound 0.1 µM, first compound 10 µM
# [13] = second compound 0.316 µM, first compound 0.0316 µM
# [14] = second compound 0.316 µM, first compound 0.1 µM
# [15] = second compound 0.316 µM, first compound 0.316 µM
# [16] = second compound 0.316 µM, first compound 1 µM
# [17] = second compound 0.316 µM, first compound 3.16 µM
# [18] = second compound 0.316 µM, first compound 10 µM
# [19] = second compound 1 µM, first compound 0.0316 µM
# [20] = second compound 1 µM, first compound 0.1 µM
# [21] = second compound 1 µM, first compound 0.316 µM
# [22] = second compound 1 µM, first compound 1 µM
# [23] = second compound 1 µM, first compound 3.16 µM
# [24] = second compound 1 µM, first compound 10 µM
# [25] = second compound 3.16 µM, first compound 0.0316 µM
# [26] = second compound 3.16 µM, first compound 0.1 µM
# [27] = second compound 3.16 µM, first compound 0.316 µM
# [28] = second compound 3.16 µM, first compound 1 µM
# [29] = second compound 3.16 µM, first compound 3.16 µM
# [30] = second compound 3.16 µM, first compound 10 µM
# [31] = second compound 10 µM, first compound 0.0316 µM
# [32] = second compound 10 µM, first compound 0.1 µM
# [33] = second compound 10 µM, first compound 0.316 µM
# [34] = second compound 10 µM, first compound 1 µM
# [35] = second compound 10 µM, first compound 3.16 µM
# [36] = second compound 10 µM, first compound 10 µM
# 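Note: spheroids exposed to the agents for seven days before readout.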
# 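Throughout, for viability, T/C: percent viability relative to DMSO vehicle control wells = 100%.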
smiles,measurement,setting,value
O=c1[nH]cc(F)c(=O)[nH]1 + Cc1cnc(CNC(=O)c2c(=O)c3ccc(N4CCCN(C)CC4)nc3n3c2sc2ccccc23)cn1,pIC50,second compound 0.0316 µM,< 5.00
same,pIC50,second compound 0.1 µM,< 5.00
same,pIC50,second compound 0.316 µM,< 5.00
same,pIC50,second compound 1 µM,< 5.00
same,pIC50,second compound 3.16 µM,< 5.00
same,pIC50,second compound 10 µM,7.50
same,"viability, T/C",[1],90.9%
same,"viability, T/C",[2],86%
same,"viability, T/C",[3],110%
same,"viability, T/C",[4],84.3%
same,"viability, T/C",[5],106%
same,"viability, T/C",[6],106%
same,"viability, T/C",[7],92.8%
same,"viability, T/C",[8],92.1%
same,"viability, T/C",[9],105%
same,"viability, T/C",[10],88.1%
same,"viability, T/C",[11],99.1%
same,"viability, T/C",[12],98.5%
same,"viability, T/C",[13],83.7%
same,"viability, T/C",[14],123%
same,"viability, T/C",[15],99.4%
same,"viability, T/C",[16],88.5%
same,"viability, T/C",[17],89.8%
same,"viability, T/C",[18],105%
same,"viability, T/C",[19],86.9%
same,"viability, T/C",[20],78%
same,"viability, T/C",[21],74.8%
same,"viability, T/C",[22],92.4%
same,"viability, T/C",[23],94.5%
same,"viability, T/C",[24],91.3%
same,"viability, T/C",[25],96%
same,"viability, T/C",[26],76%
same,"viability, T/C",[27],82.5%
same,"viability, T/C",[28],84.2%
same,"viability, T/C",[29],95.2%
same,"viability, T/C",[30],91.3%
same,"viability, T/C",[31],58.7%
same,"viability, T/C",[32],16.9%
same,"viability, T/C",[33],57.7%
same,"viability, T/C",[34],65.6%
same,"viability, T/C",[35],55.4%
same,"viability, T/C",[36],2.68%
Cc1cccc(N(C)C(=O)C2C(O)CCN2c2nc(C)cc(C(F)(F)F)c2C#N)c1 (centres undefined) + CN(C)c1ccc(Nc2c3ccc(NC(=O)CCN4CCCC4)cc3nc3cc(NC(=O)CCN4CCCC4)ccc23)cc1,pIC50,second compound 0.0316 µM,< 5.00
same,pIC50,second compound 0.1 µM,< 5.00
same,pIC50,second compound 0.316 µM,< 5.00
same,pIC50,second compound 1 µM,< 5.00
same,pIC50,second compound 3.16 µM,< 5.00
same,pIC50,second compound 10 µM,< 5.00
same,"viability, T/C",[1],118%
same,"viability, T/C",[2],96.8%
same,"viability, T/C",[3],84.9%
same,"viability, T/C",[4],80.5%
same,"viability, T/C",[5],99.2%
same,"viability, T/C",[6],86%
same,"viability, T/C",[7],116%
same,"viability, T/C",[8],84.9%
same,"viability, T/C",[9],89.2%
same,"viability, T/C",[10],83.4%
same,"viability, T/C",[11],90.4%
same,"viability, T/C",[12],81.5%
same,"viability, T/C",[13],103%
same,"viability, T/C",[14],100%
same,"viability, T/C",[15],90.5%
same,"viability, T/C",[16],103%
same,"viability, T/C",[17],95.6%
same,"viability, T/C",[18],103%
same,"viability, T/C",[19],94.9%
same,"viability, T/C",[20],105%
same,"viability, T/C",[21],99.5%
same,"viability, T/C",[22],100%
same,"viability, T/C",[23],105%
same,"viability, T/C",[24],81.3%
same,"viability, T/C",[25],108%
same,"viability, T/C",[26],99.6%
same,"viability, T/C",[27],98.6%
same,"viability, T/C",[28],108%
same,"viability, T/C",[29],84.1%
same,"viability, T/C",[30],80.4%
same,"viability, T/C",[31],102%
same,"viability, T/C",[32],79.4%
same,"viability, T/C",[33],98.7%
same,"viability, T/C",[34],110%
same,"viability, T/C",[35],77.4%
same,"viability, T/C",[36],67.6%
